Assay type in all cases: cell-based
Assay [1] relates to TNFα transcription (human TNF transcription-controlling region). Description: Inhibition of TNFα production: luciferase under human TNF transcription-controlling region in 3T3-L1 cell strain No. 46. Conditions: 10 μM compound; luciferase activity with DMSO taken as 100 (no hTNF: 40%); 24 hours. The source says:
Test for in-vitro Evaluation of the Action of Inhibiting the Production of Tumor Necrosis Factor α (TNFα) Using Lipocytes (Derived from 3T3-L1)
A luciferase gene was bonded to the downstream side of human TNF transcription-controlling region. The resulting material was stably inserted into the chromosomes of 3T3-L1 cells. The thus-obtained cell strain No. 46 was used for evaluation.
The cell strain No. 46 was cultivated according to an ordinary method. Specifically, a bovine serum (Cell Culture Technology, Catalogue No. CC017-502) was added to a Dulbecco's modified Eagle's medium (DMEM) so that the final concentration became 10%. Further, 50 U/ml of penicillin G, 50 ug/ml of streptomycin sulfate and 0.4 mg/ml of G418 were added. In the resulting medium was conducted cultivation in a 5% carbon dioxide gas at 37° C.
The cell strain No. 46 was planted into a PLL (poly L-lysine)-coated 48-well plate. When the cell strain reached confluence and then at least two days passed, the medium was substituted with the above medium containing 9 ng/m of hTNF (Genzyme) and an activity for TNFα transcription was induced. hTNF was added and, simultaneously therewith, a compound of the present invention was added so that the final concentration became 10 μM. 24 hours later, the cells were observed by a microscope. Then, the cells were fused and the luciferase activity was measured according to an ordinary method.
Regarding the activity for TNFα transcription, the luciferase activity when DMSO was added in place of the compound, was taken as 100; and the relative activity when 10 uM of the present compound was added, was shown in Table 1. Incidentally, the relative luciferase activity when no hTNF was added, was 40%.

In assay [2] the target is T1, human PPARγ receptor (Homo sapiens, UniProt P37231).
T1 construct: corresponding to Ser204-Tyr506 for human PPARγ1 receptor and human PPARγ2; expressed in transfected cells; host or cells: CV-1 cells (pSG5-based expression vector)
T1 sequence (P37231 204-505 limits assumed): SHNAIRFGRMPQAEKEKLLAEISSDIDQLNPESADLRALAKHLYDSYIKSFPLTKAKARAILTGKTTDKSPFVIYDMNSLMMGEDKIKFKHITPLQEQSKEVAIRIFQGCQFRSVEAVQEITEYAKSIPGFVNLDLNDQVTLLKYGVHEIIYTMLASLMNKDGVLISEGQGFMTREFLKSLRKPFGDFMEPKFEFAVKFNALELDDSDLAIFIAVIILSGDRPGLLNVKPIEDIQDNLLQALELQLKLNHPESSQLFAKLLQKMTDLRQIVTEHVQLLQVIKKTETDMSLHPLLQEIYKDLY
The assay is described as follows: Luciferase reporter assay of PPARγ agonist activity (Gal4-PPARγ chimera receptor in CV-1 cells). The settings on record: luciferase activity with 1 μM Pioglitazone taken as 100, read-out: PPAR γ agonist activity, relative activity; for Emax at 0.1 µM: CV-1, 0.1 μM compound; for Emax at 1 µM: CV-1, 1 μM compound; for Emax at 10 µM: CV-1, 10 μM compound. A general note: In a reporter assay the amount or activity of a reporter protein is the signal.

The target in assay [3] is T2, human PPARα receptor (Homo sapiens, UniProt Q07869).
T2 construct: expressed in transfected cells; host or cells: CV-1 cells (pSG5-based expression vector)
T2 sequence (Q07869 167-468): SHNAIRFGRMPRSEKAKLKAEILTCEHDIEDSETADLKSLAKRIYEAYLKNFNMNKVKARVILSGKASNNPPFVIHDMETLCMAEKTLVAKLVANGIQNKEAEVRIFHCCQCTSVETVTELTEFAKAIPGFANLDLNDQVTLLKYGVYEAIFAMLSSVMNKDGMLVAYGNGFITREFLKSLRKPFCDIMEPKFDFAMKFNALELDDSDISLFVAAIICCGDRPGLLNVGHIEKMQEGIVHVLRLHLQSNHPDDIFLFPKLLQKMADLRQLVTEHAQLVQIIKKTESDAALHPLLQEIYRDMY
Description: Luciferase reporter assay of PPARα agonist activity (Gal4-PPARα chimera receptor in CV-1 cells). The settings on record: luciferase activity with 10 μM Wy-14,643 taken as 100, read-out: PPARα agonist activity, relative activity; for Emax at 0.1 µM: CV-1, 0.1 μM compound; for Emax at 1 µM: CV-1, 1 μM compound; for Emax at 10 µM: CV-1, 10 μM compound. Here is the method:
Measurement of PPARα Agonist Activity and PPARγ Agonist Activity
1. Materials for Assay of Luciferase Using Human PPARα and PPARγ Receptors
The entire procedure was carried out according to the fundamental methods of genetic engineering and the ordinary method in the yeast one-hybrid or two-hybrid system was applied.
PGL2-UAS5-TK-luc was prepared as a reporter plasmid carrying a response sequence of Gal4 protein as a basic transcription factor of yeast, an enhancer sequence with five repeat part of UAS, a luciferase gene (luc) under the control of timidine kinase (TK) promoter. Specifically, a DNA fragment encoding a TK promoter (−105/+51) on the downstream side of an enhancer sequence comprising two time repeat of UAS was amplified by PCR using pRL-TK carrying a TK promoter (Promega, Trade name: Catalogue No. E2241) as the template and the primers: […]
After the fragment was cleaved with XhoI-Hind III, pGL2-UAS2-TK-luc was obtained by inserting the resultant fragment into the XhoI-Hind III site located on the upstream side of a luciferase structural gene on pGL2-Basic vector (Promega, Trade name: Catalogue No. E1641).
After cleavage of a synthetic DNA as an enhancer sequence comprising three time repeat of Gal4 response sequence (SEQ ID NO: 3): 5′-ATTGGTAC([…])×3 AGATCTCGAC) using KpnI and BgIII was carried out, pGL2-UAS5-TK-luc was prepared by inserting the resulting fragment into the KpnI-BgIIIb site of pGL2-UAS2-TK-luc.
A vector for expression of a chimera receptor protein, in which a ligand binding region of an internuclear receptor human PPARα or PPARγ receptor was fused with the carboxyl terminal of a DNA binding region of yeast Ga14 protein, was prepared as follows:
The structural gene of pSG5 (STRATAGENE, Trade Name: Catalogue No. 216201) as the basic expression vector was changed for the chimera receptor except that the promoter-enhancer region was maintained as it was.
The DNA encoding the ligand binding region of the human PPARα or PPARγ receptor was fused on the downstream side of the DNA encoding the DNA binding region and the amino acid sequence from 1 to 147 positions of Ga14 protein so that their reading frames were fitted and the resulting fused DNA was inserted into pSG5 (trade name) on the down stream side of the promoter-enhancer region. In this step, the DNA sequence was arranged so that a signal for transfer into the nucleus (Ala Pro Lys Lys Lys Arg Lys Val Gly (SEQ ID: No: 4) derived from SV-40T antigen was located on the amino terminal of the ligand binding region of PPARα or PPARγ receptor in order to localize the chimera receptor in the nucleus.
Based on comparison of the human PPAR receptors described in R. Mukherjee et al., [see J. Steroid Biochem. Molec. Biol., Vol. 51, p157 (1994)] and M. E. Green et al., [see Gene Expression, Vol. 4, p281 (1995))], as the structural gene part used for the ligand binding region PPARα or PPARγ, the human PPARα ligand binding region: Ser167-Tyr468; and the PPARγ ligand binding region: Ser176-Tyr478 were used, which had the same sequences corresponding to Ser204-Tyr506 for human PPARγ1 receptor and human PPARγ2, respectively.
In order to monitor influence against the basic transcription, an expression vector was prepared which carried a DNA encoding only the DNA binding region and the amino acid sequence from 1 to 147 position of Ga14 protein defective in its PPAR ligand binding region and a signal for transfer into the nucleus of SV-40T-antigen.
2. Assay of Luciferase Using Human PPARα or PPARγ Receptor
CV-1 cells used as a host cell were cultivated according to an ordinary method. Specifically, a fetal bovine serum (Intergent, Catalogue No. 1020-90) was added to a Dulbecco's modified Eagle's medium (DMEM) so that the final concentration became 10%. Further, penicillin G (50 U/ml) and streptomycin sulfate (50 μg/ml) were added. Cultivation was conducted in the resulting medium in a 5% carbon dioxide gas at 37° C. […]

On to `CCOC(Cc1ccc(OCc2cnc3ccc(OC)cc3c2OC(C)C)cc1)C(N)=O` (centres unmarked) [Example 3 (102), 2-ethoxy-3-{[4-(4-isopropoxy-6-methoxyquinoline-3-yl)methyloxy]phenyl}propanoic acid amide], for which, in assay [1], the “Activity for TNFα transcription, relative activity” value turned out to be 71.7. For the same compound, in assay [2], the Emax at 0.1 µM turned out to be 74.1%, the Emax at 1 µM was 114% and the Emax at 10 µM was 108%. In assay [3], the Emax at 0.1 µM stood at 0.4%, the Emax at 1 µM came out at 0.9% and the Emax at 10 µM stood at 8.5%.

On to `CCCCNC(=O)C(Cc1ccc(OCc2cnc3ccc(OC)cc3c2OC(C)C)cc1)OCC` (centres unmarked) [Example 4 (104), 2-ethoxy-3-{[4-(4-isopropoxy-6-methoxyquinoline-3-yl)methyloxy]phenyl}propanoic acid N-butylamide], for which, in assay [1], the “Activity for TNFα transcription, relative activity” value was determined as 64.0. In assay [2], the Emax at 0.1 µM turned out to be 0.4%, the Emax at 1 µM was found to be 1.1% and the Emax at 10 µM was 14.9%. Also, in assay [3], the Emax at 0.1 µM is 0.3%, the Emax at 1 µM worked out at 0.3% and the Emax at 10 µM was 0.3%.
